Source: patent US11369653B2, “Traditional Chinese medicine composition for treating cardiovascular and cerebrovascular disease, preparation method therefor and use thereof” (priority 2018, dated 2022)

How the values were obtained:
[1] = system: thrombin induced platelet aggregation in rats; test: Thrombin induced rat platelet aggregation after 15 days gavage; assay type: in vivo; conditions: SD rats, 6.75 mg/kg by gavage for 15 days
Source text: Platelet aggregation rate is a detection index of platelet function. The higher the platelet aggregation rate, the greater the possibility of thrombosis. In arteriosclerosis, coronary heart disease, cerebral infarction, hypertension, diabetes and other thrombotic diseases, platelet aggregation rate is often increased. […] Therefore, the determination of platelet aggregation rate can be used to observe the curative effect and screen drugs. In this study, thrombin induced rat platelet aggregation model was used to evaluate the inhibitory effect of the traditional Chinese medicine composition on platelet aggregation. […]
After the last administration, 3% Pentobarbital Sodium was injected intraperitoneally for anesthesia (40 mg/kg). […] After 10 minutes of centrifugation at 800 rpm, the upper platelet rich plasma (PRP) was aspirated and the number of platelets was counted. […]
A small magnetic rod and 300 μl PRP were added into a square cup, which was preheated for 5 minutes in a constant temperature hole, and 300 μl PPP was added into another square cup. […] The maximum platelet aggregation rate was measured, wherein 3-4 parallel tests were performed for each blood sample and the average value was taken.

[2] = system: arteriovenous bypass thrombosis in rats; test: Arteriovenous bypass thrombosis in rats; assay type: in vivo; conditions: SD rats, 6.75 mg/kg by gavage for 15 days
Method: After 5 days of adaptive feeding, the animals were randomly divided into blank control group, positive control group (Plavix group, 6.75 mg/kg), and four test substance groups (100, 200, 400 and 800 mg/kg), with 20 rats in each group. The animals were administered by gavage for 15 consecutive days, once a day.
After the last administration, 3% Pentobarbital Sodium was injected intraperitoneally for anesthesia (40 mg/kg). The right common carotid artery and left external jugular vein were separated. A 6 cm long medical surgical suture (No. 0) was placed in the middle of a polyethylene tube, which was filled with normal saline and inserted into the right common carotid artery and the left external jugular vein respectively to form an arteriovenous vascular loop. After 15 minutes, the blood flow was cut off, and the suture was taken out and weighed.
In this experiment, the classical rat arteriovenous bypass was used to form the bypass arteriovenous blood flow. When the platelets in the arterial blood flow contact the rough surface of the suture, they adhere to the suture, and the platelet aggregation forms platelet thrombosis around the surface of the suture. When platelet adhesion and aggregation function is inhibited, the weight of thrombosis become smaller. Therefore, the adhesion and aggregation function of platelets can be measured by thrombus weight.

Q: Which results are given for `COC(=O)[C@H](c1ccccc1Cl)N1CCc2sccc2C1` [Plavix, Clopidogrel Hydrogen Sulphate]?
A: Maximum platelet aggregation rate [1]: 35.8±29.7%; Net weight of suture [2]: 20.2 ± 4.8 mg
